Measurements reported in patent US11547681B2, “N-acylethanolamide derivatives and uses thereof” (ELIEM THERAPEUTICS, INC., priority 2016, dated 2023).

Experiment: in vitro
Conditions: male, CD-1, mouse; for Concentration (μM) of analyte PEA, 0 min / Concentration (μM) of analyte PEA, 10 min / Concentration (μM) of analyte PEA, 20 min / Concentration (μM) of analyte PEA, 30 min / Concentration (μM) of analyte PEA, 60 min / % Remaining of Initial (n = 1), 0 min / % Remaining of Initial (n = 1), 10 min / % Remaining of Initial (n = 1), 20 min / % Remaining of Initial (n = 1), 30 min / % Remaining of Initial (n = 1), 60 min / Measured concentration of PEA (analyte) / % Remaining of Initial / Concentration, analyte PEA / % Remaining of Initial (n = 1): 1 μM
Procedure: (§1) Reaction mixture, minus cofactors, was prepared as described below. Test article was added into the reaction mixture at a final concentration of 1 μM. […] An aliquot of the reaction mixture (without cofactor cocktail) was equilibrated in a shaking water bath at 37° C. for 3 minutes. The reaction was initiated by the addition of cofactor cocktail, and the mixture was incubated in a shaking water bath at 37° C. Aliquots (100 μL) were withdrawn at 0, 10, 20, 30, and 60 minutes. Test article samples were immediately combined with 300 μL of ice-cold acetonitrile containing 1% formic acid. Control samples were immediately combined with 400 μL of ice-cold 50/50 acetonitrile (ACN)/dH2O containing 0.1% formic acid and internal standard to terminate the reaction. Samples were then mixed and centrifuged to precipitate proteins. Calibration standards were prepared in matched matrix. Samples and standards were assayed by LC-MS/MS using electrospray ionization for both the dosed prodrug and the expected drug (PEA). Analytical conditions are outlined in Appendix 8-1. Test article concentration at each time point was compared to test article concentration at time 0 to determine the percent remaining at each time point. Halflives were calculated using GraphPad software, fitting to a single-phase exponential decay equation.
as §1, with “for 5” for “for 3”, “minutes. Reaction” for “minutes. The reaction”, “and” for “and the”, “both” for “both the”, “Appendix 10-1.” for “Appendix 8-1.”
Reaction mixture, minus cofactors, was prepared as described below. Test article was added into the reaction mixture at a final concentration of 1 μM. […] An aliquot of the reaction mixture (without cofactor cocktail) was equilibrated in a shaking water bath at 37° C. for 3 minutes. Reaction was initiated by the addition of cofactor cocktail, and the mixture was incubated in a shaking water bath at 37° C. Aliquots (100 μL) were withdrawn at 0, 10, 20, 30, and 60 minutes. Test article samples were immediately combined with 300 μL of ice-cold acetonitrile containing 1% formic acid. Control samples were immediately combined with 400 μL of ice-cold 50/50 acetonitrile (ACN)/dH2O containing 0.1% formic acid and internal standard to terminate the reaction. Samples were then mixed and centrifuged to precipitate proteins. Calibration standards were prepared in matched matrix. Samples and standards were assayed by LC-MS/MS using electrospray ionization for both dosed prodrug and expected drug (PEA). Analytical conditions are outlined in Appendix 13-1. Test article concentration at each time point was compared to test article concentration at time 0 to determine the percent remaining at each time point. Halflives were calculated using GraphPad software, fitting to a single-phase exponential decay equation.

Concentration (μM) of analyte PEA, 0 min (0 min) [µM]	Concentration (μM) of analyte PEA, 10 min (10 min) [µM]	Concentration (μM) of analyte PEA, 20 min (20 min) [µM]	Concentration (μM) of analyte PEA, 30 min (30 min) [µM]	Concentration (μM) of analyte PEA, 60 min (60 min) [µM]	% Remaining of Initial (n = 1), 0 min (s9, 0 h) [%]	% Remaining of Initial (n = 1), 10 min (s9, 10 min) [%]	% Remaining of Initial (n = 1), 20 min (s9, 20 min) [%]	% Remaining of Initial (n = 1), 30 min (s9, 0.5 h) [%]	% Remaining of Initial (n = 1), 60 min (s9, 1 h) [%]	microsomal CLint at 1 μM (s9, CLint (mL/min/mg protein)) [µL/min/mg]	half-life at 1 μM (s9, Half-life (min)) [min]	microsomal CLint at 1 μM (s9, CLint) [µL/min/mg]	half-life at 1 μM (s9, Half-life) [min]	SMILES	other results
0.52	0.50	0.52	0.45	0.45	100	<1.0	<1.0	<1.0	<1.0	> 691	< 1	–	–	CCCCCCCCCCCCCCCC(=O)NCCOC(=O)CCC [Compound I-2]	–
0	0.026	0.024	0.026	0.043	100	68	59	49	33	21.1	33	–	–	CCCCCCCCCCCCCCCC(=O)NCCOC(=O)CCC(=O)OCC(COC(=O)CCCCCCC)OC(=O)CCCCCCC (stereo not drawn) [Compound I-3, PEA-Succinate-Glycerol-Di-Caprylic]	–
0.050	0.11	0.076	0.093	0.14	100	68	67	66	49	–	–	–	–	CC/C=C\C/C=C\C/C=C\C/C=C\C/C=C\CCCC(=O)OCCNC(=O)CCCCCCCCCCCCCCC [Compound I-5]	–
0.12	0.14	0.17	0.15	0.17	100	62	69	61	53	< 11.6	> 60	–	–	CCCCC/C=C\C/C=C\CCCCCCCC(=O)OCCNC(=O)CCCCCCCCCCCCCCC [Compound I-6]	microsomal CLint at 1 μM (s9, CLint (mL/min/mg protein), calculated value in parentheses): 10.5 µL/min/mg; half-life at 1 μM (s9, Half-life (min), calculated half-life in parentheses): 66 min
0.033	0.24	0.29	0.39	0.38	100	59	35	27	5.7	–	–	–	–	CCCCCCCCCCCCCCCC(=O)NCCOC(=O)CCC(=O)OC[C@H]1O[C@@](CO)(O[C@H]2O[C@H](CO)[C@@H](O)[C@H](O)[C@H]2O)[C@@H](O)[C@@H]1O [Compound I-7]	–
–	–	–	–	–	–	–	–	–	–	–	–	38.9	18	CCCCCCCCCCCCCCCC(=O)NCCOC(=O)CCC(=O)OC(CO)CO [Compound I-8]	Measured concentration of PEA (analyte) (0 min): 0.012 µM; Measured concentration of PEA (analyte) (10 min): 0.12 µM; Measured concentration of PEA (analyte) (20 min): 0.19 µM; Measured concentration of PEA (analyte) (30 min): 0.22 µM; Measured concentration of PEA (analyte) (60 min): 0.26 µM; % Remaining of Initial (s9, 0 h): 100%; % Remaining of Initial (s9, 10 min): 65%; % Remaining of Initial (s9, 20 min): 45%; % Remaining of Initial (s9, 0.5 h): 31%; % Remaining of Initial (s9, 1 h): 12%
0.0024	0.12	0.15	0.19	0.23	100	56	33	21	6.5	53.7	13	–	–	CCCCCCCCCCCCCCCC(=O)NCCOC(=O)CCC(=O)OCC(O)CO (stereo not drawn) [Compound I-9]	–
0	0.021	0.059	0.12	0.084	100	<1.0	<1.0	<1.0	<1.0	> 691	< 1	–	–	CCCCCCCCCCCCCCCC(=O)NCCOC(=O)CCC(=O)OCC(COC(=O)CCC)OC(=O)CCC (stereo not drawn) [Compound I-11]	–
–	–	–	–	–	–	–	–	–	–	–	–	< 11.6	> 60	CCCCC/C=C\C/C=C\CCCCCCCC(=O)OCC(COC(=O)CCC(=O)OCCNC(=O)CCCCCCCCCCCCCCC)OC(=O)CCCCCCC/C=C\C/C=C\CCCCC (stereo not drawn) [Compound I-13]	Concentration, analyte PEA (0 min): 12 nM; Concentration, analyte PEA (10 min): 50 nM; Concentration, analyte PEA (20 min): 73 nM; Concentration, analyte PEA (30 min): 96 nM; Concentration, analyte PEA (60 min): 89 nM; % Remaining of Initial (n = 1) (s9, 0 h): 100%; % Remaining of Initial (n = 1) (s9, 10 min): 97%; % Remaining of Initial (n = 1) (s9, 20 min): 71%; % Remaining of Initial (n = 1) (s9, 0.5 h): 81%; % Remaining of Initial (n = 1) (s9, 1 h): 57%; microsomal CLint at 1 μM (s9, CLint, calculated (in parentheses)): 9.51 µL/min/mg; half-life at 1 μM (s9, Half-life, calculated (in parentheses)): 73 min
–	–	–	–	–	–	–	–	–	–	–	–	> 69.3	< 10	CCCCCCCCCCCCCCCC(=O)NCCOC(=O)CCC(=O)OC(COC(=O)CCC)COC(=O)CCC [Compound I-16]	Measured concentration of PEA (analyte) (0 min): 0 µM; Measured concentration of PEA (analyte) (10 min): 0.10 µM; Measured concentration of PEA (analyte) (20 min): 0.17 µM; Measured concentration of PEA (analyte) (30 min): 0.18 µM; Measured concentration of PEA (analyte) (60 min): 0.26 µM; % Remaining of Initial (s9, 0 h): 100%; % Remaining of Initial (s9, 10 min): 2.0%; % Remaining of Initial (s9, 20 min): <1.0%; % Remaining of Initial (s9, 0.5 h): <1.0%; % Remaining of Initial (s9, 1 h): <1.0%
